# In PMC8565778, “Evaluation of health benefits of sea lamprey (Petromyzon marinus) isolates using in vitro antiinflammatory and antioxidant assays” (PLoS ONE, 2021):
# Tests used:
# [1] = molecular target: T1, COX-1 (cyclooxygenase enzyme-1) (Ovis aries, UniProt P05979); assay: biochemical; parameters: In vitro cyclooxygenase (COX-1 and COX-2) enzyme inhibition assay, percent inhibition; conditions: read-out: % inhibition
# T1 construct: gene PTGS1
# T1 sequence (P05979 25-600): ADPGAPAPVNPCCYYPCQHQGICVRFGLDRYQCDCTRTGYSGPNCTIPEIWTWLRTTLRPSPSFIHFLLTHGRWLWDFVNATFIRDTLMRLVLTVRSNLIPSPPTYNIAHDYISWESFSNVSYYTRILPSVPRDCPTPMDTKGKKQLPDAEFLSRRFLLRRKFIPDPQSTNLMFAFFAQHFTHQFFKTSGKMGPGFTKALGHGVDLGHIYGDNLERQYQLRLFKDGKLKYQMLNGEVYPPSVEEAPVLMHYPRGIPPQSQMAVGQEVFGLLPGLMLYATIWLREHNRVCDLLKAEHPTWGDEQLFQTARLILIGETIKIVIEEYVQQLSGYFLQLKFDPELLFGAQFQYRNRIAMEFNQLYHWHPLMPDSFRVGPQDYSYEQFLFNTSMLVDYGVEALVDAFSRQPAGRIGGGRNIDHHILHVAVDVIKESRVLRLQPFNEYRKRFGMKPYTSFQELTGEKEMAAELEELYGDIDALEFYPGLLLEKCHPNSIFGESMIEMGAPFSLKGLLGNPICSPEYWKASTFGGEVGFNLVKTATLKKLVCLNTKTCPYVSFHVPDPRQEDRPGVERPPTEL
# Experimental: (see S1 File for experimental details). To evaluate the health-beneficial activity of the sea lamprey compounds, we included all isolates of sea lamprey extract for the evaluation of in vitro antiinflammatory and antioxidant activities. […] (S1 File). […] Antiinflammatory activities of arginine, tyrosine, tryptophan, asparagine and inosine were assayed at 50 μg/mL concentration.
# [2] = molecular target: T2, COX-2 (cyclooxygenase enzyme-2) (Homo sapiens, UniProt P35354); assay: biochemical; parameters: In vitro cyclooxygenase (COX-1 and COX-2) enzyme inhibition assay, percent inhibition; conditions: read-out: % inhibition
# T2 construct: gene PTGS2
# T2 sequence (P35354 18-604): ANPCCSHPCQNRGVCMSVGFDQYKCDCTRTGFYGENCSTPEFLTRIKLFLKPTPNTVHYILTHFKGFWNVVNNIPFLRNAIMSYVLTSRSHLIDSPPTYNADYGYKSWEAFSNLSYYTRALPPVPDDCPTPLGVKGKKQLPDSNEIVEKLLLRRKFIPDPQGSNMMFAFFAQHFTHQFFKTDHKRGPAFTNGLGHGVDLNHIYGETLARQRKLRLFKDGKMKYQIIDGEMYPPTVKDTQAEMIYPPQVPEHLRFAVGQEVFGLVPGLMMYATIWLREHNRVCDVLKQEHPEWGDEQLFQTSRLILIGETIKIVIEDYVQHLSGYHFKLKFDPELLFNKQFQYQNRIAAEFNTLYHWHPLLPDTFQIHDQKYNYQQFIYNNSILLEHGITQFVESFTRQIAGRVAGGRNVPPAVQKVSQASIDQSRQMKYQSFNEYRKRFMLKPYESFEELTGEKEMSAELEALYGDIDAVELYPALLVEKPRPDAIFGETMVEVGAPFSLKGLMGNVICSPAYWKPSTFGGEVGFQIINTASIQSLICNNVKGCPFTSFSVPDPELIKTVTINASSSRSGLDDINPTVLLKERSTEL
# [3] = parameters: Fe2+-induced liposome lipid peroxidation; per cent inhibition measured as loss of fluorescent probe signal; conditions: large unilamellar vesicles; LPO (lipid peroxidation of large unilamellar liposomes, Fe2+-initiated); 25 ug/mL; inhibitor
# Experimental: Pure compounds and positive controls were assayed for LPO inhibitory activities according to published procedures from our laboratory (see S1 File for experimental details). The antioxidant assay, the lipid peroxidation inhibitory (LPO) assay, used in this study measures free radical scavenging capability of pure compounds and extracts. In this assay, peroxidation of the lipid was initiated by the addition of Fe^2+ resulting in the generation of radicals, which cause the peroxidation of LUV and in turn the fluorescent probes embedded in it. The loss of fluorescent intensity in the assay indicates the oxidative damage to the lipid component of the LUV [11–15, 21] (S1 File). At 25 μg/mL concentration, cholesteryl palmitate, cholesteryl oleate, cholesteryl eicosapentaenoate and cholesteryl arachidonate inhibited LPO by 38, 60, 72 and 82%, respectively (Table 2) (Fig S in S1 File). The most abundant steroidal compound in sea lamprey was cholesterol and it lacked LPO inhibitory activity. Antioxidant activity profiles of the cholesterol esters were like its antiinflammatory profiles. That is, an increase in chain length and unsaturation increased the LPO activity. Majority of the lipophilic fraction of the sea lamprey extract consisted of glycerides and free fatty acids.
SMILES,inhibition at 25 µg/mL [1],inhibition at 25 µg/mL [2],inhibition at 108 µg/mL [2],% inhibition [3]
O=C(O)C(O)Cc1ccccc1 (stereo not drawn) [3-Phenyllactic acid],4.42 ± 0.3%,11.5 ± 1.6%,–,–
Nc1[nH]cnc2ncnc1-2 [Adenine],11.7 ± 1.8%,10 ± 1.4%,–,–
Nc1ncnc2c1ncn2[C@@H]1O[C@H](CO)[C@@H](O)[C@H]1O [Adenosine],16.6 ± 1.1%,14.7 ± 0.8%,–,–
N=C(N)NCCC[C@H](N)C(=O)O [Arginine],29.7 ± 1.3%,11.9 ± 1.9%,–,–
NC(=O)C[C@H](N)C(=O)O [Asparagine],26.8 ± 2.3%,17.3 ± 0.9%,–,–
N[C@@H](CC(=O)O)C(=O)O [Aspartic acid],11.8 ± 0.6%,4.23 ± 0.6%,–,–
CC(C)CCC[C@@H](C)[C@H]1CC[C@H]2[C@@H]3CC=C4C[C@@H](O)CC[C@]4(C)[C@H]3CC[C@]12C [Cholesterol],2.92 ± 1.4%,4.94 ± 2.4%,–,–
CCCCCCCC/C=C\CCCCCCCC(=O)O[C@H]1CC[C@@]2(C)C(=CC[C@H]3[C@@H]4CC[C@H]([C@H](C)CCCC(C)C)[C@@]4(C)CC[C@@H]32)C1 [Cholesteryl oleate^#],45.9 ± 0.5%,31.1 ± 2.8%,–,–
CCCCCCCCCCCCCCCC(=O)O[C@H]1CC[C@@]2(C)C(=CC[C@H]3[C@@H]4CC[C@H]([C@H](C)CCCC(C)C)[C@@]4(C)CC[C@@H]32)C1 [Cholesteryl palmitate^#],37.7 ± 2.4%,17.7 ± 2.9%,–,–
CN(CC(=O)O)C(=N)N [Creatine],13.3 ± 2.7%,9.65 ± 1.3%,–,–
N[C@@H](CS)C(=O)O [Cysteine],12.9 ± 3.5%,9.65 ± 1.3%,–,–
N[C@@H](CCC(=O)O)C(=O)O [Glutamic acid],32.2 ± 1.9%,13.8 ± 2.4%,–,–
NCC(=O)O [Glycine],12.9 ± 1.4%,7.01 ± 0.9%,–,–
O=c1[nH]cnc2nc[nH]c12 [Hypoxanthine],10.9 ± 1.4%,5.82 ± 0.4%,–,–
O=c1[nH]cnc2c1ncn2[C@@H]1O[C@H](CO)[C@@H](O)[C@H]1O [Inosine],35.8 ± 0.5%,26.1 ± 0.9%,–,–
CC[C@H](C)[C@H](N)C(=O)O [Isoleucine],23.3 ± 0.6%,9.92 ± 0.5%,–,–
CC(C)C[C@H](N)C(=O)O [Leucine],18.2 ± 1.3%,4.89 ± 3.9%,–,–
CSCC[C@H](N)C(=O)O [Methionine],15.2 ± 1.5%,4.36 ± 0.4%,–,–
N[C@@H](Cc1ccccc1)C(=O)O [Phenylalanine],15.6 ± 1.7%,11.5 ± 1.3%,–,–

SMILES,inhibition at 25 µg/mL [1],inhibition at 25 µg/mL [2],inhibition at 108 µg/mL [2],% inhibition [3]
O=C(O)[C@@H]1CCCN1 [Proline],21.6 ± 2.4%,7.14 ± 1.1%,–,–
NCCCCN [Putrescine],16.9 ± 0.2%,10.3 ± 1.4%,–,–
CC(=O)C(=O)O [Pyruvic acid],9.48 ± 2.9%,7.8 ± 0.8%,–,–
N[C@@H](CO)C(=O)O [Serine],6.25 ± 2.4%,2.91 ± 0.3%,–,–
NCCCNCCCCNCCCN [Spermine],17.5 ± 1.9%,3.03 ± 0.5%,–,–
C[C@@H](O)[C@H](N)C(=O)O [Threonine],19.4 ± 1.4%,5.82 ± 2.9%,–,–
N[C@@H](Cc1c[nH]c2ccccc12)C(=O)O [Tryptophan],37.6 ± 0.8%,19.6 ± 1.8%,–,–
N[C@@H](Cc1ccc(O)cc1)C(=O)O [Tyrosine],37.2 ± 1.1%,21.8 ± 2.4%,–,–
CC(C)[C@H](N)C(=O)O [Valine],21.6 ± 0.9%,8.33 ± 1.3%,–,–
O=c1[nH]c(=O)c2nc[nH]c2[nH]1 [Xanthine],12.7 ± 3.8%,4.37 ± 0.6%,–,–
"CC(=O)Oc1ccccc1C(=O)O [compound 1, Aspirin]",–,–,29.8 ± 0.9%,–
"CCCCCCCCCCCCCCCC(=O)O[C@H]1CC[C@@]2(C)C(=CC[C@H]3[C@@H]4CC[C@H]([C@H](C)CCCC(C)C)[C@@]4(C)CC[C@@H]32)C1 [compound 8, Cholesteryl palmitate^#]",–,–,–,38.0 ± 1.4%
"CCCCCCCC/C=C\CCCCCCCC(=O)O[C@H]1CC[C@@]2(C)C(=CC[C@H]3[C@@H]4CC[C@H]([C@H](C)CCCC(C)C)[C@@]4(C)CC[C@@H]32)C1 [compound 9, Cholesteryl oleate^#]",–,–,–,59.5 ± 0.7%
"N=C(N)NCCC[C@H](N)C(=O)O [compound 17, Arginine]",–,–,–,22.0 ± 1.4%
"CC(C)[C@H](N)C(=O)O [compound 18, Valine]",–,–,–,18.5 ± 0.7%
"CC(C)C[C@H](N)C(=O)O [compound 19, Leucine]",–,–,–,19.5 ± 0.7%
"N[C@@H](Cc1ccc(O)cc1)C(=O)O [compound 20, Tyrosine]",–,–,–,55.0 ± 1.4%
"CC[C@H](C)[C@H](N)C(=O)O [compound 21, Isoleucine]",–,–,–,17.5 ± 0.7%
"N[C@@H](Cc1ccccc1)C(=O)O [compound 22, Phenylalanine]",–,–,–,44.0 ± 1.4%

SMILES,inhibition at 25 µg/mL [1],inhibition at 25 µg/mL [2],inhibition at 108 µg/mL [2],% inhibition [3]
"N[C@@H](CCC(=O)O)C(=O)O [compound 23, Glutamic acid]",–,–,–,46.0 ± 1.4%
"N[C@@H](Cc1c[nH]c2ccccc12)C(=O)O [compound 25, Tryptophan]",–,–,–,57.5 ± 0.7%
"C[C@@H](O)[C@H](N)C(=O)O [compound 26, Threonine]",–,–,–,45.0 ± 1.4%
"NC(=O)C[C@H](N)C(=O)O [compound 27, Asparagine]",–,–,–,28.0 ± 1.4%
"NCC(=O)O [compound 29, Glycine]",–,–,–,16.5 ± 0.7%
"N[C@@H](CS)C(=O)O [compound 30, Cysteine]",–,–,–,47.0 ± 1.4%
"O=C(O)[C@@H]1CCCN1 [compound 31, Proline]",–,–,–,17.0 ± 1.4%
"N[C@@H](CO)C(=O)O [compound 32, Serine]",–,–,–,29.0 ± 1.4%
"N[C@@H](CC(=O)O)C(=O)O [compound 33, Aspartic acid]",–,–,–,36.5 ± 0.7%
"CN(CC(=O)O)C(=N)N [compound 34, Creatine]",–,–,–,16.5 ± 0.7%
"O=c1[nH]cnc2c1ncn2[C@@H]1O[C@H](CO)[C@@H](O)[C@H]1O [compound 35, Inosine]",–,–,–,16.5 ± 2.1%
"Nc1[nH]cnc2ncnc1-2 [compound 36, Adenine]",–,–,–,19.5 ± 0.7%
"O=c1[nH]c(=O)c2nc[nH]c2[nH]1 [compound 37, Xanthine]",–,–,–,22.0 ± 1.4%
"O=c1[nH]cnc2nc[nH]c12 [compound 38, Hypoxanthine]",–,–,–,24.5 ± 0.7%
"NCCCCN [compound 41, Putrescine]",–,–,–,17.0 ± 1.4%
CCC(=O)C(=O)O [α-Ketobutyric acid],5.24 ± 0.3%,9.65 ± 0.4%,–,–
CC(C)C(=O)C(=O)O [α-Ketoisovaleric acid],17.1 ± 2.1%,10.5 ± 1.8%,–,–
CCCC(=O)C(=O)O [α-Ketovaleric acid],4.13 ± 0.6%,4.37 ± 0.5%,–,–
CC(O)CC(=O)O (stereo not drawn) [β-Hydroxybutyric acid],19.7 ± 1.5%,12.3 ± 1.6%,–,–
